Laboratory results from ChEMBL document CHEMBL1201862, “PubChem BioAssay data set” (2004).
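Values below derive from 48-hour exposures of cells grown in 96-well plates, with endpoints linearly interpolated between the two concentrations bracketing the appropriate inhibition level. Here, GI50 denotes the concentration required for 50% inhibition of growth.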 Calls of active or inactive are those of the source. Cut-off read from the data, not from the text of the source: active = GI50 up to about 1.1 µM and inactive = higher.

Legend:
Experiment in all cases: DTP human tumour cell line panel, 48 h
LOX IMVI = test system: LOX IMVI
SK-MEL-28 = test system: SK-MEL-28
Malme-3M = test system: Malme-3M
SK-MEL-5 = test system: SK-MEL-5
A549 = test system: A549
MOLT-4 = test system: MOLT-4
SF-268 = test system: SF-268
NCI-H23 = test system: NCI-H23
SK-OV-3 = test system: SK-OV-3
Hs-578T = test system: Hs-578T
786-0 = test system: 786-0
UO-31 = test system: UO-31
HCT-116 = test system: HCT-116
RXF 393 = test system: RXF 393
K562 = test system: K562
SF-539 = test system: SF-539
A498 = test system: A498
CCRF-CEM = test system: CCRF-CEM
HL-60 = test system: HL-60

| SMILES | GI50 (LOX IMVI) | GI50 (SK-MEL-28) | GI50 (Malme-3M) | GI50 (SK-MEL-5) | GI50 (A549) | GI50 (MOLT-4) | GI50 (SF-268) | GI50 (NCI-H23) | GI50 (SK-OV-3) | GI50 (Hs-578T) | GI50 (786-0) | GI50 (UO-31) | GI50 (HCT-116) | GI50 (RXF 393) | GI50 (K562) | GI50 (SF-539) | GI50 (A498) | GI50 (CCRF-CEM) | GI50 (HL-60) |
| --- | --- | --- | --- | --- | --- | --- | --- | --- | --- | --- | --- | --- | --- | --- | --- | --- | --- | --- | --- |
| CCCC[P+](CCCC)(CCCC)C(C(=O)OC)C(C(=O)OC)=C1SC(C(=O)OC)=C(C(=O)OC)S1 (stereo not drawn) | > 100 µM (inactive) | > 100 µM (inactive) | > 100 µM (inactive) | > 100 µM (inactive) | > 100 µM (inactive) | > 100 µM (inactive) | > 100 µM (inactive) | > 100 µM (inactive) | > 100 µM (inactive) | > 100 µM (inactive) | > 100 µM (inactive) | > 100 µM (inactive) | > 100 µM (inactive) | > 100 µM (inactive) |  |  |  |  |  |
| Brc1ccc2c(c1)C1=C(CO2)Cc2ccccc2O1 | 17.4 µM (inactive) |  | 20.7 µM (inactive) | 15 µM (inactive) | 21.6 µM (inactive) | 20 µM (inactive) | 19.1 µM (inactive) | 16.3 µM (inactive) | 21.5 µM (inactive) |  | 22.7 µM (inactive) | 16.5 µM (inactive) | 16.4 µM (inactive) |  | 16.2 µM (inactive) | 18.6 µM (inactive) | 27.4 µM (inactive) | 39.4 µM (inactive) |  |
| CNC(=O)N1CN(c2ccccc2)C2(CCN(Cc3ccccc3)CC2)C1=O | 50.5 µM (inactive) | > 100 µM (inactive) | 70.1 µM (inactive) | 56.1 µM (inactive) | > 100 µM (inactive) | 14.2 µM (inactive) | > 100 µM (inactive) | > 100 µM (inactive) | 4.18 µM (inactive) |  | > 100 µM (inactive) | 11.3 µM (inactive) | 24.9 µM (inactive) | > 100 µM (inactive) | 31.8 µM (inactive) | 34.7 µM (inactive) |  | 53.5 µM (inactive) | 43.1 µM (inactive) |
| COc1cc(NCc2ccc3nc(OC)c(OC)nc3c2)cc(OC)c1OC | > 100 µM (inactive) | > 100 µM (inactive) | > 100 µM (inactive) | > 100 µM (inactive) | > 100 µM (inactive) | > 100 µM (inactive) | > 100 µM (inactive) | > 100 µM (inactive) | > 100 µM (inactive) |  | > 100 µM (inactive) | > 100 µM (inactive) | > 100 µM (inactive) | > 100 µM (inactive) | 97.3 µM (inactive) | > 100 µM (inactive) | > 100 µM (inactive) | 83.9 µM (inactive) | > 100 µM (inactive) |
| Cc1ccc(/C=C2\Sc3scc(-c4ccccc4)[n+]3C2=O)cc1 | 20.6 µM (inactive) | 51.5 µM (inactive) |  | 21.6 µM (inactive) | 25.1 µM (inactive) | 30.1 µM (inactive) | 17.9 µM (inactive) | 17.5 µM (inactive) | 44.2 µM (inactive) | 3.38 µM (inactive) | 22.3 µM (inactive) | 14.5 µM (inactive) | 21.2 µM (inactive) | 25.9 µM (inactive) | 12.3 µM (inactive) | 22.3 µM (inactive) |  | 13.6 µM (inactive) | 2.69 µM (inactive) |
| CC(=O)OC1CC[C@@]2(C)C(C1)CC(OC(C)=O)[C@@H]1C2CC(OC(C)=O)[C@]2(C)C(C(C)CC=C(c3ccc(Cl)cc3)c3ccc(Cl)cc3)CCC12 (stereo partly drawn) |  | > 100 µM (inactive) |  | 55.1 µM (inactive) | 64 µM (inactive) | 20 µM (inactive) | 59.3 µM (inactive) |  | > 100 µM (inactive) | 25.9 µM (inactive) | > 100 µM (inactive) | 56.2 µM (inactive) | 19.6 µM (inactive) |  | 15.2 µM (inactive) | 67.3 µM (inactive) |  | 16.3 µM (inactive) | 4.7 µM (inactive) |
| C/C=C\C(CC(=O)O)CN1CCC2=C(C1)C(S(=O)(=O)C(F)(F)F)c1ccccc12 (stereo not drawn) |  | > 100 µM (inactive) | > 100 µM (inactive) | > 100 µM (inactive) | > 100 µM (inactive) | > 100 µM (inactive) | > 100 µM (inactive) | > 100 µM (inactive) | > 100 µM (inactive) | > 100 µM (inactive) | > 100 µM (inactive) | > 100 µM (inactive) | > 100 µM (inactive) | > 100 µM (inactive) | > 100 µM (inactive) |  | > 100 µM (inactive) | > 10 µM (inactive) |  |
| Nc1nc(N)c2nc(CNc3ccc(C(=O)NC(CCNC(=O)c4ccccc4C(=O)O)C(=O)O)cc3)cnc2n1 (stereo not drawn) | 0.01 µM (active) | 4.14 µM (inactive) | > 36.2 µM (inactive) | < 0.0286 µM (active) | 0.01 µM (active) | < 0.0154 µM (active) | 0.0101 µM (active) | < 0.0226 µM (active) | > 100 µM (inactive) | > 100 µM (inactive) | 0.01 µM (active) | 0.00802 µM (active) | 0.00502 µM (active) |  | 0.01 µM (active) | < 0.0256 µM (active) | 0.054 µM (active) | 0.01 µM (active) |  |
| COc1ccc(/C(Br)=C2\OC(=O)c3ccccc32)cc1 | > 10 µM (inactive) | > 10 µM (inactive) |  | > 10 µM (inactive) | > 10 µM (inactive) | > 10 µM (inactive) | > 10 µM (inactive) | > 10 µM (inactive) | > 10 µM (inactive) | > 10 µM (inactive) | > 10 µM (inactive) | > 10 µM (inactive) | > 10 µM (inactive) | > 10 µM (inactive) | > 10 µM (inactive) | > 10 µM (inactive) |  | > 10 µM (inactive) | > 10 µM (inactive) |
| CSc1nc(C)cc(Nc2ccc(O)c(CN3CCCCC3)c2)n1 | 33 µM (inactive) | 28.8 µM (inactive) | 48.6 µM (inactive) | 25.3 µM (inactive) | > 100 µM (inactive) | 57.7 µM (inactive) | > 100 µM (inactive) | 77.4 µM (inactive) | > 100 µM (inactive) | > 100 µM (inactive) | 23.1 µM (inactive) | 48.1 µM (inactive) | 27.8 µM (inactive) | 67.6 µM (inactive) | 30.6 µM (inactive) | 43.3 µM (inactive) | 23.1 µM (inactive) |  |  |
| O/N=C1\C=Cc2nn(-c3ccccc3)nc2\C1=N/O | 2.81 µM (inactive) | 6.21 µM (inactive) | 17.7 µM (inactive) | 2.24 µM (inactive) | 3.05 µM (inactive) | 2.55 µM (inactive) | 4.27 µM (inactive) | 3.77 µM (inactive) | 6.35 µM (inactive) | 1.85 µM (inactive) | 6.11 µM (inactive) | 3.15 µM (inactive) | 2.65 µM (inactive) |  | 0.695 µM (active) | 4.22 µM (inactive) |  | 2.42 µM (inactive) | 2.03 µM (inactive) |
| Nn1c(CCCCCCCCc2nnc(COc3ccc(Cl)cc3Cl)n2N)nnc1COc1ccc(Cl)cc1Cl |  | 68.5 µM (inactive) | 6.71 µM (inactive) | 38.5 µM (inactive) | 32.7 µM (inactive) | 20 µM (inactive) | 33 µM (inactive) | 38 µM (inactive) | > 10 µM (inactive) |  | 63.5 µM (inactive) | 47.1 µM (inactive) | 16.7 µM (inactive) | 38.5 µM (inactive) | 63.8 µM (inactive) |  | 45.3 µM (inactive) |  |  |
| O=C1CC[C@@]2(O)[C@H]3Cc4ccc(-c5ccccc5)c5c4[C@@]2(CCN3CC2CC2)[C@H]1O5 | 16 µM (inactive) | 42.4 µM (inactive) | 15.5 µM (inactive) | 14.2 µM (inactive) | 20.6 µM (inactive) | 18.6 µM (inactive) | 14.3 µM (inactive) | 24.1 µM (inactive) | 23.9 µM (inactive) |  | 15.8 µM (inactive) | 16.1 µM (inactive) | 16.9 µM (inactive) | 9.66 µM (inactive) | 24.3 µM (inactive) | 16.8 µM (inactive) | 18.1 µM (inactive) | 24.4 µM (inactive) | 17.9 µM (inactive) |
| CCOC(CCCN1CCC2(CC1)C(=O)N(C)CN2c1ccccc1)(OCC)c1ccc(F)cc1 | 16.1 µM (inactive) | 16.8 µM (inactive) | 16.2 µM (inactive) | 3.45 µM (inactive) | 8.65 µM (inactive) | 7.11 µM (inactive) | 12.9 µM (inactive) | 16.6 µM (inactive) | 21.8 µM (inactive) |  | 14.6 µM (inactive) | 7.01 µM (inactive) | 3.82 µM (inactive) | 19.2 µM (inactive) | 14 µM (inactive) | 3.77 µM (inactive) |  | 4.42 µM (inactive) | 13 µM (inactive) |
| CC(=O)NCCSC(=O)c1ccccc1 | 0.124 µM (active) | 0.268 µM (active) | 0.119 µM (active) | 0.0171 µM (active) | 0.155 µM (active) | < 0.0176 µM (active) | 0.0977 µM (active) | 0.0559 µM (active) | 1.13 µM (inactive) | 0.479 µM (active) | 0.0506 µM (active) | 0.264 µM (active) | 0.0488 µM (active) | 0.112 µM (active) | 0.285 µM (active) | 0.387 µM (active) |  | < 0.0153 µM (active) |  |
| C=CCOC(=O)C[C@H](NC(=O)[C@H](Cc1ccc(O)cc1)NCC(F)(F)F)C(=O)OCC=C | 65.5 µM (inactive) | 20.6 µM (inactive) | 22.6 µM (inactive) | 30.5 µM (inactive) | > 100 µM (inactive) | 25.1 µM (inactive) | 37.7 µM (inactive) | 37.5 µM (inactive) | > 100 µM (inactive) | 41.7 µM (inactive) | > 100 µM (inactive) | > 100 µM (inactive) | > 100 µM (inactive) | > 100 µM (inactive) | 39.2 µM (inactive) | 57.8 µM (inactive) |  |  |  |
| C=CCN(Cc1ccncc1)C(=O)C(O)(c1ccccc1)c1ccccc1 | 97.9 µM (inactive) | 76.4 µM (inactive) | 51.9 µM (inactive) | 62.8 µM (inactive) | 79.3 µM (inactive) | 27.8 µM (inactive) | > 100 µM (inactive) | 54.3 µM (inactive) | > 100 µM (inactive) |  | > 100 µM (inactive) | 17.5 µM (inactive) | 48.2 µM (inactive) | > 100 µM (inactive) | 45.2 µM (inactive) | 70.6 µM (inactive) |  | 35.8 µM (inactive) | 35.3 µM (inactive) |
